Among the data in patent US12110288B2, “MASP-2 inhibitors and methods of use” (Omeros Corporation, priority 2019, dated 2024) are Ki values, retold here.

pKi: −log10 of the molar value. Counter-ions that a name gives are not always drawn. Where only a bound is given, the exact number is not on record here.

This assay deals with T1, MASP-2 (CCP1-CCP2-SP) (Homo sapiens, UniProt O00187).
T1 construct: 15 μL of Enzyme MASP-2 (CCP1-CCP2-SP) in Assay Buffer
T1 sequence (O00187 445-686 limits assumed): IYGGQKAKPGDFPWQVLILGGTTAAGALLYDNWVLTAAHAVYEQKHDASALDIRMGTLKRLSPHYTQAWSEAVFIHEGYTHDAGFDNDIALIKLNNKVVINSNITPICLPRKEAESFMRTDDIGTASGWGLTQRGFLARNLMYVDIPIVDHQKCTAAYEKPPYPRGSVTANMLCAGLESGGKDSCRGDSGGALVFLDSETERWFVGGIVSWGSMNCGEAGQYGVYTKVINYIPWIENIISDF
T1 sequence (O00187 298-444 partner limits assumed): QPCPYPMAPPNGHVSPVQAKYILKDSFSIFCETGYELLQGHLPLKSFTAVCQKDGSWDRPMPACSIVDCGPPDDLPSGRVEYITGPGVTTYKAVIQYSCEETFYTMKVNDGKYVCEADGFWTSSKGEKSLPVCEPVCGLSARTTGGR
Put plainly: Enzymatic Assay for MASP-2. Type of assay: biochemical. The following applies: fluorogenic substrate based on C2 cleavage site, room temperature, 20 mM HEPES pH 7.4. As to the method:
Enzymatic Assay for MASP-2
The MASP-2 assay utilizes a fluorogenic substrate, based on the cleavage site for its natural substrate C2. The assay is run at room temperature in an assay buffer containing 20 mM HEPES, pH 7.4, 140 mM NaCl and 0.1% Tween 20. Assay parameters are adjusted such that the assay is linear with respect to time, enzyme, and substrate concentrations. Under these optimized assays conditions, IC50 values are equivalent to Ki values, except in a few cases of “tight binding” inhibitors. Cases of “tight binding” or possible “slow binding” inhibitors are handled by the methods described in Copeland R. A. (2013) Evaluation of Enzyme Inhibitors in Drug Discovery. 2nd Ed., John Wiley and Sons, Inc., Chapters 5-7.
The MASP-2 assay protocol is carried out as follows. Test compounds are serially diluted in DMSO and then 100 nL of each dilution is transferred to the assay plate(s). 10 μL of Assay Buffer is added, followed by 15 μL of Enzyme MASP-2 (CCP1-CCP2-SP) in Assay Buffer. 15 μL of Substrate in Assay Buffer is then added and mixed to start the reactions. After 20 min at room temperature, 15 μL of a stop solution (0.1 M acetic acid) is added, mixed and the plates are read on a SpectraMax i3x Microplate Reader and exported as Excel files. Each assay plate included a “no inhibitor” (DMSO Only) control, a “no enzyme” control and a reference inhibitor control. % Activity values=100*(average test comp. fluorescence−average “no enzyme” fluorescence)/(average “DMSO only” fluorescence−average “no enzyme” fluorescence). IC50 and Ki values are very reproducible, falling well within ±2-fold.
`Cc1cc2[nH]c(CNC(=O)Cn3c(-c4ccccc4)cnc(NC4(c5ccccc5)CC4)c3=O)cc2cn1` [Compound 76, N-((6-Methyl-1H-pyrrolo[3,2-c]pyridin-2-yl)methyl)-2-(2-oxo-6-phenyl-3-((1-phenylcyclopropyl)amino)pyrazin-1(2H)-yl)acetamide trifluoroacetate] had a pKi greater than 6.30.
In turn, `Cc1ccc(CCNc2ncc(-c3ccccc3)n(CC(=O)NCc3cc4cnccc4[nH]3)c2=O)cc1` [Compound 138, N-((1H-Pyrrolo[3,2-c]pyridin-2-yl)methyl)-2-(3-((4-methylphenethyl)amino)-2-oxo-6-phenylpyrazin-1(2H)-yl)acetamide] showed a pKi greater than 6.30.
In the case of `Nc1nc2ccc(CNC(=O)Cn3c(-c4cccc(C(=O)O)c4)cnc(NCCc4ccccc4)c3=O)cc2[nH]1` [Compound 16], the pKi is greater than 6.30.
Regarding `COc1cccc(CNc2ncc(-c3ccccc3)n(CC(=O)NCc3cc4cnccc4[nH]3)c2=O)c1` [Compound 153, N-((1H-Pyrrolo[3,2-c]pyridin-2-yl)methyl)-2-(3-((3-methoxybenzyl)amino)-2-oxo-6-phenylpyrazin-1(2H)-yl)acetamide], the negative-log Ki (pKi) is greater than 6.30.
As for `Cc1nc(N)ccc1CNC(=O)Cn1c(-c2cccc3cnccc23)cnc(NCCc2ccccc2)c1=O` [Compound 24, N-((6-Amino-2-methylpyridin-3-yl)methyl)-2-(6-(isoquinolin-5-yl)-2-oxo-3-(phenethylamino)pyrazin-1(2H)-yl)acetamide], the figure is greater than 6.30.
As for `O=C(Cn1c(Br)cnc(NCCc2ccccc2)c1=O)NCc1cc2cnccc2[nH]1` [Compound 109, N-((1H-Pyrrolo[3,2-c]Pyridin-2-yl)Methyl)-2-(6-Bromo-2-Oxo-3-(Phenethylamino)Pyrazin-1(2H)-yl)Acetamide], the negative-log Ki (pKi) is greater than 6.30.
Regarding `O=C(Cn1c(-c2ccccc2)cnc(NCCc2cccc(F)c2)c1=O)NCc1cc2cnccc2[nH]1` [Compound 145, N-((1H-Pyrrolo[3,2-c]pyridin-2-yl)methyl)-2-(3-((3-fluorophenethyl)amino)-2-oxo-6-phenylpyrazin-1(2H)-yl)acetamide], the pKi is greater than 6.30.
The compound `Cc1nc(N)ccc1CNC(=O)Cn1c(=O)c(NS(=O)(=O)Cc2ccccc2)cn(C)c1=O` [Compound 36, N-((6-Amino-2-Methylpyridin-3-yl)Methyl)-2-(3-Methyl-2,6-Dioxo-5-((Phenylmethyl)Sulfonamido)-3,6-Dihydropyrimidin-1(2H)-yl)Acetamide, Trifluoroacetate] showed a pKi of less than 5.00.
As for `CC(C)(C)OC(=O)N1CC(n2cc(-c3cnc(NCCc4ccccc4)c(=O)n3CC(=O)NCc3cc4cnccc4[nH]3)cn2)C1` [Compound 111, tert-Butyl 3-(4-(1-(2(((1H-pyrrolo[3,2-c]pyridin-2-yl)methyl)amino)-2-oxoethyl)-6-oxo-5-(phenethylamino)-1,6-dihydropyrazin-2-yl)-1H-pyrazol-1-yl)azetidine-l-carboxylate], the figure is greater than 6.30; as for `O=C(Cn1c(-c2ccccc2)cnc(NC(CO)Cc2ccccc2)c1=O)NCc1cc2cnccc2[nH]1` (stereo not drawn) [Compound 49, N-((1H-Pyrrolo[3,2-c]pyridin-2-yl)methyl)-2-(3-((1-hydroxy-3-phenylpropan-2-yl)amino)-2-oxo-6-phenylpyrazin-1(2H)-yl)acetamide trifluoroacetate], greater than 6.30; as for `CSc1ncc(NCCc2ccccc2)c(=O)n1CC(=O)NCc1ccc2nc(N)[nH]c2c1` [Compound 5, N-((2-Amino-1H-Benzo[d]Imidazol-6-yl)Methyl)-2-(2-(Methylthio)-6-Oxo-5-(Phenethylamino)Pyrimidin-1(6H)-yl)Acetamide], greater than 6.30.
Compound `NCc1cccc(-c2cnc(NCCc3ccccc3)c(=O)n2CC(=O)NCc2cc3cnccc3[nH]2)c1` [Compound 96, N-((1H-Pyrrolo[3,2-c]Pyridin-2-yl)Methyl)-2-(6-(3-(Aminomethyl)Phenyl)-2-Oxo-3-(Phenethylamino)Pyrazin-1(2H)-yl)Acetamide] gave a pKi greater than 6.30.

By pKi is commonly meant the Ki on a negative log10 scale, so that one unit is a factor of ten. Read a high pKi as a small Ki.
